Laboratory results: BindingDB's records for doi:10.1021/jm950874+ (National Institutes of Health, 1996)

Molecular target: T1, Dimer of Gag-Pol polyprotein [489-587] (Human immunodeficiency virus 1, UniProt P12497)
T1 construct: 489-587
Assay: Protease Inhibition Assay
Conditions: pH 6.5; 37 °C
Procedure: Sensitivity of HIV-1 protease activity to protease inhibitors was determined by a peptide substrate cleavage assay. Protease products were analyzed on a reverse-phase high-pressure liquid chromatograph.

Point of comparison: CC(C)c1cccc(C(C)C)c1NC(=O)C(=O)CC(=O)CC(c1ccccc1)c1c(O)c2ccccc2oc1=O (stereo not drawn) [N-[2,6-bis(propan-2-yl)phenyl]-6-(4-hydroxy-2-oxo-2H-chromen-3-yl)-2,4-dioxo-6-phenylhexanamide], IC50 31 µM. Against it:
- O=C1C(=O)c2ccccc2C(=O)C1=C(c1ccc(C(C2C(=O)C(=O)c3ccccc3C2=O)C2C(=O)C(=O)c3ccccc3C2=O)cc1)c1c(O)c(O)c2ccccc2c1O (stereo not drawn) [2-({4-[bis(3-hydroxy-1,4-dioxo-1,4-dihydronaphthalen-2-yl)methyl]phenyl}(3-hydroxy-1,4-dioxo-1,4-dihydronaphthalen-2-yl)methyl)-3-hydroxy-1,4-dihydronaphthalene-1,4-dione] — 41-fold lower, 0.75 µM
- CC(=O)NC(Cc1ccsc1)(C(=O)O)C(=O)O [2-acetamido-2-(thiophen-3-ylmethyl)propanedioic acid] — within 1.5-fold, 23 µM
- O=c1oc2ccccc2c(O)c1-c1ccccc1 [Cancer Chemotherapy National Service Center (CCNSC) compound 251152] — within 1.5-fold, 42 µM
- O=C1Oc2ccccc2C(O)C1Sc1c(O)c2ccccc2oc1=O (stereo not drawn) [Cancer Chemotherapy National Service Center (CCNSC) compound 41234] — within 1.5-fold, 21 µM
- O=C1C(=O)c2ccccc2C(=O)C1=C(c1ccc(Cl)cc1Cl)c1c(O)c(O)c2ccccc2c1O [2-[(2,4-dichlorophenyl)(3-hydroxy-1,4-dioxo-1,4-dihydronaphthalen-2-yl)methyl]-3-hydroxy-1,4-dihydronaphthalene-1,4-dione] — within 1.5-fold, 24 µM
- CC1(C)CC[C@]2(C(=O)O)CC[C@@]3(C)C(=CC[C@H]4[C@@]5(C)C[C@H](O)[C@H](O)[C@](C)(C(=O)O)[C@H]5CC[C@]43C)[C@@H]2C1 [(2S,3R,4R,4aS,6aR,6bR,8aS,12aS,14aS,14bR)-2,3-dihydroxy-4,6a,6b,11,11,14b-hexamethyl-1,2,3,4,4a,5,6,6a,6b,7,8,8a,9,10,11,12,12a,14,14a,14b-icosahydropicene-4,8a-dicarboxylic acid] — within 1.5-fold, 35 µM
- CC(=O)OC1CCC2(C)C(C)C(C)CCC2(O)C1O (stereo not drawn) [Cancer Chemotherapy National Service Center (CCNSC) compound 112500] — 1.9-fold lower, 16 µM
- O=c1oc2c(-c3ccccc3)cccc2c(O)c1-c1ccccc1 [Cancer Chemotherapy National Service Center (CCNSC) compound 251150] — 2.4-fold lower, 13 µM
- C[C@]12CCC(=O)C=C1CC[C@@H]1[C@H]2[C@@H](O)C[C@@]2(C)[C@@H]1CC[C@]2(O)C(=O)COC(=O)CCC(=O)O [Cancer Chemotherapy National Service Center (CCNSC) compound 7576] — within 1.5-fold, 27 µM
- O=C(Oc1ccccc1)N(CCO)C(c1ccccc1)C(O)c1ccccc1 (stereo not drawn) [phenyl N-(2-hydroxy-1,2-diphenylethyl)-N-(2-hydroxyethyl)carbamate] — within 1.5-fold, 32 µM
- O=c1oc2ccccc2c(O)c1C(c1ccc2c(c1)OCO2)c1c(O)c2ccccc2oc1=O [Cancer Chemotherapy National Service Center (CCNSC) compound 373937] — within 1.5-fold, 30 µM
- CCCC(=O)c1c(O)c(C)c(O)c(CC2C(=O)C(C(=O)CCC)C(=O)C(C)(C)C2=O)c1O (stereo not drawn) [2-butanoyl-6-[(3-butanoyl-2,4,6-trihydroxy-5-methylphenyl)methyl]-3,5-dihydroxy-4,4-dimethylcyclohexa-2,5-dien-1-one] — within 1.5-fold, 26 µM
- CC(C)CC(NC(=O)OCc1ccccc1)(C(=O)O)C(=O)O [Cancer Chemotherapy National Service Center (CCNSC) compound 20143] — 1.8-fold lower, 17 µM
- O=c1oc2cccc(O)c2c(O)c1Cc1ccccc1 — 5.2-fold lower, 6 µM
- CCCCCCc1cc2c(cc1O)OC(=O)C(C(c1ccccc1)c1c(O)c3cc(CCCCCC)c(O)cc3oc1=O)C2O (stereo not drawn) — 97-fold lower, 0.32 µM
- O=c1oc2ccccc2c(O)c1C(c1ccc(C(c2c(O)c3ccccc3oc2=O)c2c(O)c3ccccc3oc2=O)cc1)c1c(O)c2ccccc2oc1=O [3-({4-[bis(4-hydroxy-2-oxo-2H-chromen-3-yl)methyl]phenyl}(4-hydroxy-2-oxo-2H-chromen-3-yl)methyl)-4-hydroxy-2H-chromen-2-one] — 18-fold lower, 1.7 µM
- O=C1C2=C(C(=O)c3ccccc31)C(O)(S(=O)(=O)O)C(O)(S(=O)(=O)O)C1N=CC=CC21 (stereo not drawn) [11,12-dihydroxy-5,10-dioxo-4a,5,10,11,12,12a-hexahydro-1-azatetraphene-11,12-disulfonic acid] — 16-fold lower, 2 µM
